{"source": "patent US20150087723A1", "about": "“MICROBIAL COMPOSITION” (Rohm and Haas Company, priority 2011, published 2015)", "type_in_all_cases": "cell-based", "key": {"[1]": {"tested_on": "Escherichia coli (E. coli—ATCC #10536)", "assay": "Automated assessment of efficacy in model surfactant base (2.85% sodium cocoyl glycinate + 1.85% sodium lauroamphoacetate, pH 10), 15 seconds exposure, OD450/OD590 readout", "conditions": "for MBC: Escherichia coli, ATCC10536, 15 s, in 2.85% sodium cocoyl glycinate + 1.85% sodium lauroamphoacetate solution at pH 10, E. coli, read-out: MBC (% w/v); for No. of replicates showing growth (out of 4) / Δ OD 450 nm = OD450 (time = 16 hours) - OD450 (time zero), Mean / Δ OD 590 nm OD590 (time = 16 hours) - OD590 (time zero), Mean: model surfactant solution", "description": "Solutions were prepared such that the concentrations of the surfactant components and test actives were 1.1×x the final desired concentration in order to allow for dilution with the bacterial inoculum in the test. The solutions were manually adjusted to pH 10.0 by drop wise addition of sodium hydroxide solution, as measured with a phi meter at ambient temperature.\nTests were conducted using standard microtiter plate assays using an automated liquid handling system, 270 μl of the surfactant test solution was pipetted into each well of the microtitre plate and 30 μl of the bacterial suspension was then added. After exactly 15 seconds of bacterial exposure, a 30 μl volume of bacterial cells was withdrawn and transferred to 270 μl of D/E quench solution. After 5 minutes in the D/E quench, the optical density (OD) was measured for each plate in turn at two specific wavelengths (450 nm and 590 nm). These provide a dual check of antimicrobial activity, as the OD450 reading is specific for the yellow colour of D/E quench when bacterial growth is observed, whereas OD590 is specific for the initial purple colour of the D/E quench which is retained if no bacterial growth is observed. After the time zero OD measurements, plates were then incubated at 37° C. overnight (16 hours) before repeating the OD measurements. Delta OD values were calculated by subtracting […] the initial value at time zero. Bacterial growth is observed as an increase in OD450 and a decrease in ΔOD590. To identify antibacterially efficacious systems (those preventing appreciable bacterial growth after incubation), the following threshold changes in OD readings have been adopted: if (1), OD450 increases by less than 0.2 absorbance unit on incubation and (2). OD590 decreases by less than 0.35 unit on incubation. Conversely, where OD450 increases by more than 0.2 AU and OD590 decreases by more than 0.35 unit after incubation, corresponding to a colour shift from purple to yellow, the test system allows bacterial growth and is not deemed efficacious. Four replicate measurements in the same plate have been made for each test system. The number of replicate wells showing either bacterial growth or no growth is also readily assessed by eye by following the colour change.\nDose responses for individual components and binary mixtures of actives at a used concentration ratio were generated by sequential dilution of liquors with further surfactant solution to obtain a series of endpoints.\nIn some selected cases, the combinations were also tested at the weight ratio 1:1."}, "[2]": {"tested_on": "Escherichia coli (10536 strain)", "assay": "Antimicrobial efficacy in water, 15 seconds contact, mean bacterial survival NMBS by colony count", "description": "An overnight culture of Escherichia coli (10536 strain) was prepared in 50 ml total volume of TSB broth, grown for ca. 18 hrs at 37° C. and shaken at 150 rpm. 1 ml of this overnight E. coli culture was transferred to 50 ml of fresh TSB broth and incubated at 37° C. at 150 rpm for ca. 4 hours. […] This bacterial stock was used for assaying against antimicrobial actives (in triplicate).\nThe following assay describes the testing of 8 materials using 6 dilutions across half of a 96-well micro litre plate (MTP). Using this approach it is possible to assay 16 actives (without replicates) with, one full dilution plate, replicating this set up in two halves of the plate columns, 1-6 and 7-12.\nIM solutions of the test actives were prepared in dimethylsulphoxide (DMSO).\nAliquots (270 μl) of the materials at 1.11 times the final concentration were dispensed into the wells of the MTP along one column (A1-H1). This MTP was labeled as the “Screening plate”.\nIn another MTP, labeled as the “Dilution plate”, 270 μl of D/E neutralising solution from DIFCO Composition was added to column 1. The composition of the neutralising solution was as follows: pancreatic digest of casein, 5.0 g/L; Yeast Extract, 2.5 g/L; Dextrose, 10 g/L, sodium thioglycollate, 1.0 g/L, sodium thiosulphate, 6.0 g/L; sodium bisulphite, 2.5 g/L; Polysorbate 80, 5.0 g/L; lecithin 7.0 g/L; bromocresol purple, 0.02 g/L with a pH is the range 7.6±0.2.\n270 μl of tryptone diluent solution was added to all the remaining wells of the Dilution MTP (columns 2-6).\nBacterial stock (30 μl) was then added to the prepared 270 μl of the solution of actives in the Screening Plate and mixed, using a multichannel pipette with 8 tips to aspirate and dispense the same volume of bacterial stock in parallel to 8 wells in rows A-H. After a contact time of 15 seconds, the mixtures were quenched by transferring 30 μl volumes of the mixtures into the 270 μl D/E neutralising solution in the prepared dilution plate, using aspiration to mix. After exactly 5 minutes in the D/E neutralising solution, 30 μl volumes were transferred from column 1 to column 2 of the Dilution MTP and mixed, before transferring further 30 μl volumes from column 2 into column 3. This process was repeated serially diluting the bacteria across the plate to column 6.\n30 μl volumes from each well in the Dilution MTP were transferred onto pre-labeled segment of Tryptone Soya Agar (TSA) plates starting from the lowest bacterial concentration (highest dilution, column 6) to the highest bacterial concentration (column 1). The TSA plates were allowed to stand for ca. 2 hours so that the 30 μl inocula spots could dry and the plates were then inverted and incubated overnight at 37° C. before enumerating the bacterial colonies at the labeled dilutions to determine the effects of the actives on bacterial growth.\nMean bacterial survival numbers NMBS (expressed in Log CFU/ml) are obtained by first determining the segment of the TSA plate where the number of bacterial colonies is countable. From the colony number in this segment, NMBS is calculated by the formula: […]\nHere, Ncol is the colony count, and DF is the dilution factor taken from the MTP-well corresponding to the TSA plate segment (i.e. DF may range from 1 for the quench, to 6 for the highest dilution)."}, "[3]": {"tested_on": "Staphylococcus aureus (10788 strain)", "assay": "Antimicrobial efficacy in water, 15 seconds contact, mean bacterial survival NMBS by colony count"}}}
{"molecule": "CCCc1ccccc1O", "note": "[2-n-propylphenol]", "values": [{"measurement": "MBC", "setting": "[1]", "value": 1750, "unit": "µg/mL"}, {"measurement": "No. of replicates showing growth (out of 4)", "setting": "[1]; component alone at 0.125% w/v", "value": "4 out of 4"}, {"measurement": "Δ OD 450 nm = OD450 (time = 16 hours) - OD450 (time zero), Mean", "setting": "[1]; component alone at 0.125% w/v", "value": "−1.34"}, {"measurement": "Δ OD 590 nm OD590 (time = 16 hours) - OD590 (time zero), Mean", "setting": "[1]; component alone at 0.125% w/v", "value": 0.54}, {"measurement": "No. of replicates showing growth (out of 4)", "setting": "[1]; component alone at 0.175% w/v", "value": "0 out of 4"}, {"measurement": "Δ OD 450 nm = OD450 (time = 16 hours) - OD450 (time zero), Mean", "setting": "[1]; component alone at 0.175% w/v", "value": "−0.10"}, {"measurement": "Δ OD 590 nm OD590 (time = 16 hours) - OD590 (time zero), Mean", "setting": "[1]; component alone at 0.175% w/v", "value": 0.09}, {"measurement": "No. of replicates showing growth (out of 4)", "setting": "[1]; component alone at […] w/v", "value": "4 out of 4"}, {"measurement": "Δ OD 450 nm = OD450 (time = 16 hours) - OD450 (time zero), Mean", "setting": "[1]; component alone at […] w/v", "value": "−1.43"}, {"measurement": "Δ OD 590 nm OD590 (time = 16 hours) - OD590 (time zero), Mean", "setting": "[1]; component alone at […] w/v", "value": 0.44}]}
{"molecule": "CC(C)=CCC/C(C)=C/CO", "note": "[(E)-3,7-dimethylocta-2,6-dien-1-ol]", "values": [{"measurement": "MBC", "setting": "[1]", "value": "> 5000", "unit": "µg/mL"}, {"measurement": "No. of replicates showing growth (out of 4)", "setting": "[1]; component alone at 0.2% w/v", "value": "4 out of 4"}, {"measurement": "Δ OD 450 nm = OD450 (time = 16 hours) - OD450 (time zero), Mean", "setting": "[1]; component alone at 0.2% w/v", "value": "−0.54"}, {"measurement": "Δ OD 590 nm OD590 (time = 16 hours) - OD590 (time zero), Mean", "setting": "[1]; component alone at 0.2% w/v", "value": 0.60}, {"measurement": "No. of replicates showing growth (out of 4)", "setting": "[1]; component alone at 0.3% w/v", "value": "4 out of 4"}, {"measurement": "Δ OD 450 nm = OD450 (time = 16 hours) - OD450 (time zero), Mean", "setting": "[1]; component alone at 0.3% w/v", "value": "−0.51"}, {"measurement": "Δ OD 590 nm OD590 (time = 16 hours) - OD590 (time zero), Mean", "setting": "[1]; component alone at 0.3% w/v", "value": 0.59}, {"measurement": "No. of replicates showing growth (out of 4)", "setting": "[1]; component alone at 0.4% w/v", "value": "4 out of 4"}, {"measurement": "Δ OD 450 nm = OD450 (time = 16 hours) - OD450 (time zero), Mean", "setting": "[1]; component alone at 0.4% w/v", "value": "−0.49"}, {"measurement": "Δ OD 590 nm OD590 (time = 16 hours) - OD590 (time zero), Mean", "setting": "[1]; component alone at 0.4% w/v", "value": 0.60}, {"measurement": "No. of replicates showing growth (out of 4)", "setting": "[1]; component alone at 0.5% w/v", "value": "4 out of 4"}, {"measurement": "Δ OD 450 nm = OD450 (time = 16 hours) - OD450 (time zero), Mean", "setting": "[1]; component alone at 0.5% w/v", "value": "−0.45"}, {"measurement": "Δ OD 590 nm OD590 (time = 16 hours) - OD590 (time zero), Mean", "setting": "[1]; component alone at 0.5% w/v", "value": 0.62}, {"measurement": "No. of replicates showing growth (out of 4)", "setting": "[1]; component alone at […] w/v", "value": "4 out of 4"}, {"measurement": "Δ OD 450 nm = OD450 (time = 16 hours) - OD450 (time zero), Mean", "setting": "[1]; component alone at […] w/v", "value": "−0.53"}, {"measurement": "Δ OD 590 nm OD590 (time = 16 hours) - OD590 (time zero), Mean", "setting": "[1]; component alone at […] w/v", "value": 0.58}, {"measurement": "Terpene alcohol MBC %(w/v)", "setting": "[1]; terpene alcohol alone, model surfactant, E. Coli", "value": "0.5 %(w/v)"}, {"measurement": "Log reduction E. coli ATCC 10536", "setting": "[2]; component alone at 0.1% w/v", "value": 1.27}, {"measurement": "Log reduction E. coli ATCC 10536", "setting": "[2]; component alone at […] w/v", "value": 1.94}, {"measurement": "Log reduction S. aureus ATCC 6538", "setting": "[3]; component alone at 0.1% w/v", "value": "−0.12"}, {"measurement": "Log reduction S. aureus ATCC 6538", "setting": "[3]; component alone at […] w/v", "value": "−0.06"}]}
